Measurements taken from the supplement of paper PMC6045584.
± gives the standard deviation of the averaged measurements.

Tests used:
[1] = compound: CNCc1ccc(-c2[nH]c3cc(F)cc4c3c2CCNC4=O)cc1; assay: surviving fraction relative to DMSO-only wells; higher = less growth inhibition; conditions: exposure time: 5 days
Method in brief: (§1)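 For each tumour cell line, log-phase cells were put into 384-well plates at 250–500 cells per well, then after 24 hours exposed continuously for five days to inhibitors at 0.5, 1, 5, 10, 50, 100, 500 and 1000 nM. Viability was assessed by CellTiter-Glo luminescence, with surviving fraction expressed relative to the median of DMSO-only wells. Lines were screened three times and retained only if replicate Pearson r exceeded 0.7 and median Z' exceeded 0.3.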

FORETINIB = compound: COc1cc2c(Oc3ccc(NC(=O)C4(C(=O)Nc5ccc(F)cc5)CC4)cc3F)ccnc2cc1OCCCN1CCOCC1 [FORETINIB]; assay: as above; conditions: exposure time: 5 days
Method in brief: as §1

Test System | surviving fraction ([1]; 0.5 nM) | surviving fraction ([1]; 1 nM) | surviving fraction ([1]; 5 nM) | surviving fraction ([1]; 10 nM) | surviving fraction ([1]; 50 nM) | surviving fraction ([1]; 100 nM) | surviving fraction ([1]; 500 nM) | surviving fraction ([1]; 1000 nM) | surviving fraction (FORETINIB; 0.5 nM) | surviving fraction (FORETINIB; 1 nM) | surviving fraction (FORETINIB; 5 nM) | surviving fraction (FORETINIB; 10 nM) | surviving fraction (FORETINIB; 50 nM) | surviving fraction (FORETINIB; 100 nM) | surviving fraction (FORETINIB; 500 nM) | surviving fraction (FORETINIB; 1000 nM)
HUO3N1 BONE | 1.04 ± 0.061 | 1.02 ± 0.062 | 1.04 ± 0.038 | 0.987 ± 0.099 | 0.933 ± 0.06 | 0.988 ± 0.04 | 0.884 ± 0.039 | 0.85 ± 0.032 | 1 ± 0.035 | 0.992 ± 0.079 | 1.06 ± 0.059 | 1.01 ± 0.039 | 0.903 ± 0.04 | 0.819 ± 0.006 | 0.619 ± 0.02 | 0.412 ± 0.025
JIMT1 BREAST | 0.948 ± 0.055 | 0.945 ± 0.052 | 0.98 ± 0.067 | 0.9615 ± 0.0036 | 0.881 ± 0.045 | 0.885 ± 0.05 | 0.864 ± 0.031 | 0.856 ± 0.054 | 0.991 ± 0.015 | 0.978 ± 0.032 | 1.03 ± 0.058 | 1.03 ± 0.031 | 1 ± 0.041 | 1.01 ± 0.11 | 0.62 ± 0.033 | 0.484 ± 0.087
JURKAT HAEMATOPOIETIC AND LYMPHOID TISSUE | 1.09 ± 0.018 | 1.1 ± 0.029 | 1.04 ± 0.019 | 1.02 ± 0.024 | 1.01 ± 0.049 | 1.01 ± 0.029 | 0.979 ± 0.021 | 0.916 ± 0.047 | 1 ± 0.034 | 0.979 ± 0.036 | 1.02 ± 0.031 | 0.971 ± 0.023 | 0.923 ± 0.019 | 0.976 ± 0.039 | 0.61 ± 0.021 | 0.601 ± 0.03
KPD BONE | 0.975 ± 0.058 | 0.983 ± 0.022 | 1.13 ± 0.15 | 1.05 ± 0.028 | 0.956 ± 0.032 | 0.95 ± 0.022 | 0.876 ± 0.022 | 0.732 ± 0.046 | 1.05 ± 0.059 | 1.03 ± 0.029 | 1.09 ± 0.03 | 1.11 ± 0.026 | 1.07 ± 0.04 | 1.04 ± 0.018 | 0.63 ± 0.037 | 0.303 ± 0.028
LM7 BONE | 0.912 ± 0.043 | 0.965 ± 0.015 | 0.986 ± 0.06 | 1.01 ± 0.016 | 0.752 ± 0.042 | 0.679 ± 0.1 | 0.497 ± 0.013 | 0.451 ± 0.0082 | 1.02 ± 0.028 | 1.04 ± 0.06 | 1.05 ± 0.016 | 1.02 ± 0.011 | 0.997 ± 0.015 | 1.03 ± 0.058 | 0.725 ± 0.042 | 0.216 ± 0.013
LNCAP PROSTATE | 1.09 ± 0.059 | 1.14 ± 0.038 | 1.01 ± 0.095 | 0.907 ± 0.093 | 1.02 ± 0.047 | 0.946 ± 0.013 | 0.969 ± 0.056 | 0.73 ± 0.057 | 1.04 ± 0.022 | 1.02 ± 0.046 | 0.968 ± 0.075 | 1.01 ± 0.1 | 0.997 ± 0.074 | 1.04 ± 0.039 | 0.261 ± 0.03 | 0.189 ± 0.028
MCF7 BREAST | 0.923 ± 0.057 | 0.927 ± 0.072 | 0.921 ± 0.086 | 0.918 ± 0.084 | 0.951 ± 0.058 | 0.93 ± 0.081 | 0.865 ± 0.0098 | 0.924 ± 0.043 | 0.938 ± 0.026 | 0.958 ± 0.056 | 0.972 ± 0.031 | 0.993 ± 0.057 | 0.908 ± 0.052 | 0.959 ± 0.0097 | 0.669 ± 0.055 | 0.701 ± 0.066
MDAMB134 BREAST | 0.811 ± 0.061 | 0.818 ± 0.12 | 0.814 ± 0.051 | 0.8795 ± 0.0078 | 0.703 ± 0.19 | 0.764 ± 0.13 | 0.824 ± 0.21 | 0.986 ± 0.4 | 0.888 ± 0.12 | 1.41 ± 0.042 | 0.916 ± 0.06 | 1.37 ± 0.026 | 0.86 ± 0.16 | 1.17 ± 0.32 | 0.939 ± 0.14 | 0.886 ± 0.033
MDAMB157 BREAST | 0.959 ± 0.026 | 0.91 ± 0.025 | 1.04 ± 0.053 | 1.03 ± 0.09 | 0.921 ± 0.088 | 1 ± 0.12 | 0.73 ± 0.03 | 0.691 ± 0.015 | 0.967 ± 0.045 | 0.987 ± 0.035 | 1.1 ± 0.095 | 0.975 ± 0.0044 | 0.971 ± 0.074 | 0.934 ± 0.081 | 0.537 ± 0.085 | 0.231 ± 0.02
MDAMB231 BREAST | 0.937 ± 0.013 | 0.967 ± 0.027 | 0.971 ± 0.06 | 0.959 ± 0.021 | 0.917 ± 0.015 | 0.891 ± 0.037 | 0.824 ± 0.02 | 0.764 ± 0.0086 | 0.974 ± 0.018 | 0.985 ± 0.013 | 0.998 ± 0.017 | 1 ± 0.03 | 0.971 ± 0.0077 | 0.9367 ± 0.0039 | 0.489 ± 0.0095 | 0.449 ± 0.0084
MDAMB361 BREAST | 0.709 ± 0.074 | 0.752 ± 0.04 | 0.672 ± 0.041 | 0.69 ± 0.0053 | 0.543 ± 0.065 | 0.615 ± 0.082 | 0.553 ± 0.09 | 0.589 ± 0.063 | 0.794 ± 0.035 | 0.877 ± 0.15 | 0.803 ± 0.05 | 1.18 ± 0.11 | 0.9 ± 0.15 | 0.798 ± 0.021 | 0.918 ± 0.1 | 0.918 ± 0.073
